Where two headings read alike, the source gives them in different places.
Target: T1, CFTR (Homo sapiens, UniProt P13569, DEL508-508)
T1 construct: endogenous in cells; host or cells: primary human bronchial epithelial cells from CF subjects (F508del/MF-HBE), differentiated at air-liquid interface
Test: HBE assay: Ussing chamber assay of CFTR-mediated short-circuit currents
Type: cell-based
Details: for Emax: read-out: HBE Max Activity (%); for activation at 10 µM: read-out: HBE Activity at 10 μM (%)
Outline: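 CFTR-mediated Isc (μA/cm²) equals the peak response to apical 20 μM forskolin minus the residual after a 20 μM each BPO/GlyH-101/CFTR inhibitor 172 cocktail, recorded in Ussing chambers at Vhold 0 mV, 37 °C, pH 7.4, with 30 μM apical amiloride. Cells were F508del/MF HBE cultures preincubated 18-24 h with corrector (concentration range or 10 μM) plus 1 μM ivacaftor in 20% human serum.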

T1 sequence (P13569 with tags, fused parts or gaps DEL508-508): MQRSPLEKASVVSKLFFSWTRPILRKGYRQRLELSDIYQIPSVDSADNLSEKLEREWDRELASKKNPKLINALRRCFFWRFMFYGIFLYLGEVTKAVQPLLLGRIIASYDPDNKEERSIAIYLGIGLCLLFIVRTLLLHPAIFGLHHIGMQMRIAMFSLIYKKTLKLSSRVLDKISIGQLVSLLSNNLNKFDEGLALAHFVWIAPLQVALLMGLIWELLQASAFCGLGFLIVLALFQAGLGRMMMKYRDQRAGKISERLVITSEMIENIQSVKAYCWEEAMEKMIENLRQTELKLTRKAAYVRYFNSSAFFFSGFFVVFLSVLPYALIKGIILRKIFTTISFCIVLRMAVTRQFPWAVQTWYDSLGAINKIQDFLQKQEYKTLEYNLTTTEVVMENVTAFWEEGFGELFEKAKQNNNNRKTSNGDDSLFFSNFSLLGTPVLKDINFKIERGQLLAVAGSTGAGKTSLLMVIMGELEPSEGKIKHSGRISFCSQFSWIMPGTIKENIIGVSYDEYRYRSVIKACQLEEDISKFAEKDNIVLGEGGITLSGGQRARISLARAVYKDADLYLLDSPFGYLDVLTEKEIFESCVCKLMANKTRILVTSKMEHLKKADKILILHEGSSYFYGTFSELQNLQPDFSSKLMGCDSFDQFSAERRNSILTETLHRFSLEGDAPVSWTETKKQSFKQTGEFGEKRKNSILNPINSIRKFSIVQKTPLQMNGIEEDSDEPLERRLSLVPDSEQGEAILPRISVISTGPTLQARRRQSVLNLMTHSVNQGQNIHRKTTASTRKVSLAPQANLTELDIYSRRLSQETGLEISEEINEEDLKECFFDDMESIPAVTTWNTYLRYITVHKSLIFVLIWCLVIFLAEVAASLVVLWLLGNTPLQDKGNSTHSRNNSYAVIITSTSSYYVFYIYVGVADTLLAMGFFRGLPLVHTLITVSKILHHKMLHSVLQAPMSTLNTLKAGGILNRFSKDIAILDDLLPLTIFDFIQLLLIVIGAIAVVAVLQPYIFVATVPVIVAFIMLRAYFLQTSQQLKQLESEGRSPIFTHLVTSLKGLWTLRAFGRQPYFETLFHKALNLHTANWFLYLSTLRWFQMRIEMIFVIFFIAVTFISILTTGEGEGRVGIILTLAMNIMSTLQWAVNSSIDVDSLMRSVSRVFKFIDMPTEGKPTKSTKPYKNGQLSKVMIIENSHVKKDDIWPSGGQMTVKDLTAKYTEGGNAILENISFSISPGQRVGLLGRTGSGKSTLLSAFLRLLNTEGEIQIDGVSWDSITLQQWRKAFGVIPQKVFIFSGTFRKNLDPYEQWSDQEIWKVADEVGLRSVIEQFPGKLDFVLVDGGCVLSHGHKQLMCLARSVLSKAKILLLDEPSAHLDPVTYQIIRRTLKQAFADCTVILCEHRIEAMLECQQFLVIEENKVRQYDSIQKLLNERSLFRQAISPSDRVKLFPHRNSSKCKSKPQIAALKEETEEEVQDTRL

| SMILES | EC50 (Table 11, read-out: HBE EC50) | Emax (Table 11) | other results |
| --- | --- | --- | --- |
| Cc1cccc(C)c1-c1cc2nc(n1)NS(=O)(=O)c1cccc(c1)C(=O)N(Cc1ncc(N3CC(C)(O)C3)cn1)[C@H](CC(C)(C)C)CO2 [Compound 586] |  |  | EC50 (Table 12, read-out: HBE EC50): < 1 µM; Emax (Table 12): > 60% |
| Cc1cccc(C)c1-c1cc2nc(n1)NS(=O)(=O)c1cccc(c1)C(=O)N(Cc1nccc(N3CCCC3(C)C)n1)[C@H](CC(C)(C)C)CO2 [Compound 587] |  |  | EC50 (Table 12, read-out: HBE EC50): < 1 µM; Emax (Table 12): > 60% |
| Cc1cccc(C)c1-c1cc2nc(n1)NS(=O)(=O)c1cccc(c1)C(=O)N(Cc1cccc(/C=C/C(C)(C)C)n1)[C@H](CC(C)(C)C)CO2 [Compound 588] |  |  | EC50 (Table 12, read-out: HBE EC50): < 1 µM; Emax (Table 12): > 60% |
| CC(C)=Cc1cccc(CN2C(=O)c3cccc(c3)S(=O)(=O)Nc3nc(cc(-c4c(C)cccc4C)n3)OC[C@H]2CC(C)(C)C)n1 [Compound 589] |  |  | EC50 (Table 12, read-out: HBE EC50): < 1 µM; Emax (Table 12): > 60% |
| Cc1cccc(C)c1-c1cc2nc(n1)NS(=O)(=O)c1cccc(c1)C(=O)N(Cc1cccc(-c3ncccn3)n1)[C@H](CC(C)(C)C)CO2 [Compound 590] |  |  | EC50 (Table 12, read-out: HBE EC50): < 1 µM; Emax (Table 12): > 60% |
| Cc1cccnc1-c1cccc(CN2C(=O)c3cccc(c3)S(=O)(=O)Nc3nc(cc(-c4c(C)cccc4C)n3)OC[C@H]2CC(C)(C)C)n1 [Compound 591] |  |  | activation at 10 µM (Table 12): > 600% |
| Cc1cccc(C)c1-c1cc2nc(n1)NS(=O)(=O)c1cccc(c1)C(=O)N(Cc1cccc(N3CCCC3(C)C)n1)[C@H](CC(C)(C)C)CO2 [Compound 592] |  |  | EC50 (Table 12, read-out: HBE EC50): 1 to 3 µM; Emax (Table 12): > 60% |
| C=C(C)c1nccc(CN2C(=O)c3cccc(c3)S(=O)(=O)Nc3nc(cc(-c4c(C)cccc4C)n3)OC[C@H]2CC(C)(C)C)n1 [Compound 593] |  |  | EC50 (Table 12, read-out: HBE EC50): < 1 µM; Emax (Table 12): > 60% |
| Cc1cccc(C)c1-c1cc2nc(n1)NS(=O)(=O)c1cccc(c1)C(=O)N(Cc1ccnc(CC(C)C)n1)[C@H](CC(C)(C)C)CO2 [Compound 594] |  |  | EC50 (Table 12, read-out: HBE EC50): < 1 µM; Emax (Table 12): > 60% |
| Cc1cccc(C)c1-c1cc2nc(n1)NS(=O)(=O)c1cccc(c1)C(=O)N(Cc1ccnc(OC(C)C)n1)[C@H](CC(C)(C)C)CO2 [Compound 595] |  |  | EC50 (Table 12, read-out: HBE EC50): < 1 µM; Emax (Table 12): > 60% |
| CC(C)=Cc1nccc(CN2C(=O)c3cccc(c3)S(=O)(=O)Nc3nc(cc(-c4c(C)cccc4C)n3)OC[C@H]2CC(C)(C)C)n1 [Compound 596] |  |  | EC50 (Table 12, read-out: HBE EC50): < 1 µM; Emax (Table 12): > 60% |
| Cc1cccc(C)c1-c1cc2nc(n1)NS(=O)(=O)c1cccc(c1)C(=O)N(Cc1cccc(N3CC(C)(C)CC3(C)C)n1)[C@H](CC(C)(C)C)CO2 [Compound 597] |  |  | EC50 (Table 12, read-out: HBE EC50): < 1 µM; Emax (Table 12): 30 to 60% |
| Cc1cccc(C)c1-c1cc2nc(n1)NS(=O)(=O)c1cccc(c1)C(=O)N(Cc1cccc(C3CCCC3)n1)[C@H](CC(C)(C)C)CO2 [Compound 598] | < 1 µM | > 60% | activation at 10 µM (Table 11): > 60% |
| COC1CCN(c2cnc(CN3C(=O)c4cccc(c4)S(=O)(=O)Nc4nc(cc(-c5c(C)cccc5C)n4)OC[C@H]3CC(C)(C)C)nc2)C1 (stereo partly drawn) [Compound 599] | 1 to 3 µM | > 60% |  |
| COCCN(C)c1nccc(CN2C(=O)c3cccc(c3)S(=O)(=O)Nc3nc(cc(-c4c(C)cccc4C)n3)OC[C@H]2CC(C)(C)C)n1 [Compound 600] | < 1 µM | > 60% |  |
| Cc1cccc(C)c1-c1cc2nc(n1)NS(=O)(=O)c1cccc(c1)C(=O)N(Cc1ccnc(N(C)CC(C)(C)C)n1)[C@H](CC(C)(C)C)CO2 [Compound 601] | < 1 µM | > 60% |  |
| CCN(c1ccnc(CN2C(=O)c3cccc(c3)S(=O)(=O)Nc3nc(cc(-c4c(C)cccc4C)n3)OC[C@H]2CC(C)(C)C)n1)C(C)C [Compound 602] | < 1 µM | > 60% |  |
| Cc1cccc(C)c1-c1cc2nc(n1)NS(=O)(=O)c1cccc(c1)C(=O)N(Cc1cccc(C3CCCCO3)n1)[C@H](CC(C)(C)C)CO2 (stereo partly drawn) [Compound 603] | < 1 µM | > 60% |  |
| Cc1cccc(C)c1-c1cc2nc(n1)NS(=O)(=O)c1cccc(c1)C(=O)N(Cc1cccc(C3CCCCO3)n1)[C@H](CC(C)(C)C)CO2 (stereo partly drawn) [Compound 604] |  |  | EC50 (Table 12, read-out: HBE EC50): < 1 µM; Emax (Table 12): > 60% |
| Cc1cccc(C)c1-c1cc2nc(n1)NS(=O)(=O)c1cccc(c1)C(=O)N(Cc1ncc(N3CCC(C)(C)CC3)cn1)[C@H](CC(C)C)CO2 [Compound 605] | 3 to 30 µM | > 60% |  |
| Cc1cccc(C)c1-c1cc2nc(n1)NS(=O)(=O)c1cccc(c1)C(=O)N(Cc1ncc(N3CCC(C)(C)C3)cn1)[C@H](CC(C)C)CO2 [Compound 606] | < 1 µM | > 60% |  |
| Cc1cccc(C)c1-c1cc2nc(n1)NS(=O)(=O)c1cccc(c1)C(=O)N(Cc1cnc(N3CCC(C)(C)C3)cn1)[C@H](CC(C)(C)C)CO2 [Compound 607] | < 1 µM | > 60% |  |
| Cc1cccc(C)c1-c1cc2nc(n1)NS(=O)(=O)c1cccc(c1)C(=O)N(Cc1cnc(N3CCC(C)(C)CC3)cn1)[C@H](CC(C)(C)C)CO2 [Compound 608] | < 1 µM | > 60% |  |

| SMILES | EC50 (Table 11, read-out: HBE EC50) | Emax (Table 11) | other results |
| --- | --- | --- | --- |
| Cc1cccc(C)c1-c1cc2nc(n1)NS(=O)(=O)c1cccc(c1)C(=O)N(Cc1ccc(N3CCC(C)(C)C3)cn1)[C@H](CC(C)(C)C)CO2 [Compound 609] | 1 to 3 µM | > 60% |  |
| Cc1cccc(C)c1-c1cc2nc(n1)NS(=O)(=O)c1cccc(c1)C(=O)N(Cc1ncc(OC(C)C)c(C)n1)[C@H](CC(C)(C)C)CO2 [Compound 610] | < 1 µM | > 60% |  |
| COc1cnc(CN2C(=O)c3cccc(c3)S(=O)(=O)Nc3nc(cc(-c4c(C)cccc4C)n3)OC[C@H]2CC(C)(C)C)nc1C [Compound 611] | < 1 µM | > 60% |  |
| Cc1cccc(C)c1-c1cc2nc(n1)NS(=O)(=O)c1cccc(c1)C(=O)N(Cc1ncc(N3CCC4(CCC4)C3)cn1)[C@H](CC(C)(C)C)CO2 [Compound 612] | < 1 µM | > 60% |  |
| Cc1cccc(C)c1-c1cc2nc(n1)NS(=O)(=O)c1cccc(c1)C(=O)N(Cc1ncc(N3CC4CC(C4)C3)cn1)[C@H](CC(C)(C)C)CO2 [Compound 613] |  | > 60% | EC50 (HBE EC50 (μM), Table 11): < 1 µM |
| Cc1cccc(C)c1-c1cc2nc(n1)NS(=O)(=O)c1cccc(c1)C(=O)N(Cc1nccc(NC3CCCCC3)n1)[C@H](CC(C)(C)C)CO2 [Compound 614] | < 1 µM | > 60% |  |
| Cc1cccc(C)c1-c1cc2nc(n1)NS(=O)(=O)c1cccc(c1)C(=O)N(Cc1nccc(N(C)C3CC4(CC4)C3)n1)[C@H](CC(C)(C)C)CO2 [Compound 615] | < 1 µM | > 60% |  |
| Cc1cccc(C)c1-c1cc2nc(n1)NS(=O)(=O)c1cccc(c1)C(=O)N(Cc1nccc(N(C)C3CCOCC3)n1)[C@H](CC(C)(C)C)CO2 [Compound 616] | < 1 µM | > 60% |  |
| Cc1cccc(C)c1-c1cc2nc(n1)NS(=O)(=O)c1cccc(c1)C(=O)N(Cc1nccc(N(C)C3CCCC3)n1)[C@H](CC(C)(C)C)CO2 [Compound 617] | 1 to 3 µM | > 60% |  |
| Cc1cccc(C)c1-c1cc2nc(n1)NS(=O)(=O)c1cccc(c1)C(=O)N(Cc1nccc(N3CCC[C@H]3C)n1)[C@H](CC(C)(C)C)CO2 [Compound 618] | < 1 µM | > 60% |  |
| Cc1cccc(C)c1-c1cc2nc(n1)NS(=O)(=O)c1cccc(c1)C(=O)N(Cc1nccc(N3CCC(C)(C)CC3)n1)[C@H](CC(C)(C)C)CO2 [Compound 620] |  |  | HBE Max activity (%) (Table 11): + (+ is <30%); activation at 10 µM (Table 11): > 60% |
| Cc1cccc(C)c1-c1cc2nc(n1)NS(=O)(=O)c1cccc(c1)C(=O)N(Cc1cccc(C3=CCCC3)n1)[C@H](CC(C)(C)C)CO2 [Compound 621] | < 1 µM | > 60% |  |
| Cc1cccc(C)c1-c1cc2nc(n1)NS(=O)(=O)c1cccc(c1)C(=O)N(Cc1ncc(N3CC4(CC4)C3)cn1)[C@H](CC(C)(C)C)CO2 [Compound 622] | 1 to 3 µM | > 60% |  |
| CO[C@@H]1CCN(c2cnc(CN3C(=O)c4cccc(c4)S(=O)(=O)Nc4nc(cc(-c5c(C)cccc5C)n4)OC[C@H]3CC(C)(C)C)nc2)C1 [Compound 623] | < 1 µM | > 60% |  |
| CO[C@@H]1CCN(c2cccc(CN3C(=O)c4cccc(c4)S(=O)(=O)Nc4nc(cc(-c5c(C)cccc5C)n4)OC[C@H]3CC(C)(C)C)n2)C1 [Compound 624] | < 1 µM | > 60% |  |
| COC1CCN(c2cccc(CN3C(=O)c4cccc(c4)S(=O)(=O)Nc4nc(cc(-c5c(C)cccc5C)n4)OC[C@H]3CC(C)(C)C)n2)C1 (stereo partly drawn) [Compound 625] | < 1 µM | > 60% |  |
| Cc1cccc(C)c1-c1cc2nc(n1)NS(=O)(=O)c1cccc(c1)C(=O)N(Cc1cccc(C3CCC3)n1)[C@H](CC(C)(C)C)CO2 [Compound 626] | < 1 µM | > 60% |  |
| Cc1cccc(C)c1-c1cc2nc(n1)NS(=O)(=O)c1cccc(c1)C(=O)N(Cc1nccc(N(C)C3CCC3)n1)[C@H](CC(C)(C)C)CO2 [Compound 627] | < 1 µM | > 60% |  |
| Cc1cccc(C)c1-c1cc2nc(n1)NS(=O)(=O)c1cccc(c1)C(=O)N(Cc1ccnc(N(C)C(C)C)n1)[C@H](CC(C)(C)C)CO2 [Compound 628] | < 1 µM | > 60% |  |
| Cc1cccc(C)c1-c1cc2nc(n1)NS(=O)(=O)c1cccc(c1)C(=O)N(Cc1ncc(N(C(C)C)C(C)C)cn1)[C@H](CC(C)(C)C)CO2 [Compound 629] | 3 to 30 µM | > 60% |  |
| Cc1cccc(C)c1-c1cc2nc(n1)NS(=O)(=O)c1cccc(c1)C(=O)N(Cc1cccc(N3CCCC3)n1)[C@H](CC(C)(C)C)CO2 [Compound 630] | < 1 µM | > 60% |  |
| Cc1cccc(C)c1-c1cc2nc(n1)NS(=O)(=O)c1cccc(c1)C(=O)N(Cc1ncc(C3CCN(C)CC3)cn1)[C@H](CC(C)(C)C)CO2 [Compound 631] | < 1 µM | > 60% |  |
